Substitutions are numbered along the chain they refer to. Like-named read-outs stand apart in the source and are kept apart here.
Columns and labels:
[1] = target: T1, purified wild type MGL (wt-MGLL 6H-11-313) (Homo sapiens, UniProt Q99685)
T1 sequence (Q99685 1-303): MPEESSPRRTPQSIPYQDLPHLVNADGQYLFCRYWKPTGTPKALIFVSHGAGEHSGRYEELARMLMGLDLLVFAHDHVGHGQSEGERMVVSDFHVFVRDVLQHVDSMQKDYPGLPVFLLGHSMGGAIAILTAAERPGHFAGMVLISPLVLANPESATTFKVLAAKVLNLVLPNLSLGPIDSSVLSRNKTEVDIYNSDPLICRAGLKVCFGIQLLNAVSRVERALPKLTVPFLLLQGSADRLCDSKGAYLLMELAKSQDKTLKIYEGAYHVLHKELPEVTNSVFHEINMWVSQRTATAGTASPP

mutant MGL = target: T2, mutant MGL (Homo sapiens, UniProt Q99685, L169S/L176S); assay: MGL ThermoFluor assay - mutant; assay type: binding
T2 sequence (Q99685 1-303 L169S/L176S): T1 sequence (Q99685 1-303) with L169S, L176S

[2] = ThermoFluor concentration-response, read-out: MGL mutant ThermoFluor Kd
[3] = ThermoFluor, compound concentration measured by qNMR, read-out: MGL mutant ThermoFluor qKd (μM) (using qNMR conc.)
[4] = ThermoFluor thermal stability binding assay, read-out: MGL mutant ThermoFluor Kd
[5] = compound concentration measured by qNMR, read-out: MGL mutant ThermoFluor qKd (using qNMR conc.)
[6] = ThermoFluor, compound concentration measured by qNMR, read-out: MGL mutant ThermoFluor qKd (using qNMR conc.)

| SMILES | IC50 [1] [nM] | Kd (mutant MGL; [3]) [µM] | further results |
| --- | --- | --- | --- |
| O=C(c1ccc(-n2cnc3ccccc32)cc1)N1CCN(C2CN(C(=O)c3cscn3)C2)CC1 [Cpd 1305] | 6680 |  | Kd (mutant MGL; [2]): 0.833 µM |
| O=C(c1ccc(-c2ccccc2)cc1)N1CC(N2CCN(C(=O)c3nccs3)CC2C(F)(F)F)C1 (centres unmarked) [Cpd 1306, 1-[1-(Biphenyl-4-ylcarbonyl)azetidin-3-yl]-4-(1,3-thiazol-2-ylcarbonyl)-2-(trifluoromethyl)piperazine] | 8150 | 12.2 |  |
| O=C(c1ccc(-c2ccccc2)cc1)N1CC(N2CCN(C(=O)c3c[nH]c4ccccc34)CC2)C1 [Cpd 1308] | 9280 |  | Kd (mutant MGL; [4]): 2.06 µM |
| O=C(c1cn[nH]c1)N1CCN(C2CN(C(=O)c3ccc(-c4ccccc4)cc3)C2)CC1 [Cpd 1310] | 11600 |  | Kd (mutant MGL; [4]): 8.35 µM |
| O=C(c1nn(-c2ccc(Cl)cc2Cl)c2c1CCCC2)N1CC(N2CCN(C(=O)C(F)(F)F)CC2)C1 [Cpd 1311] | 14600 |  | Kd (mutant MGL; [5]): 67.5 µM |
| O=C(c1ccc2c(ccn2-c2ccc(C(F)(F)F)cn2)c1)N1CC(N2CCN(C(=O)c3nccs3)CC2)C1 [Cpd 1314, 5-({3-[4-(1,3-Thiazol-2-ylcarbonyl)piperazin-1-yl]azetidin-1-yl}carbonyl)-1-[5-(trifluoromethyl)pyridin-2-yl]-1H-indole] | < 5 |  | Kd (mutant MGL; [6]): 0.001 µM |
| O=C(c1ccc2c(-c3cccc(F)c3)c[nH]c2c1)N1CC(N2CCN(C(=O)c3nccs3)CC2)C1 [Cpd 1319] | < 5 |  | Kd (mutant MGL; [5]): 0.001 µM |
| O=C(c1cc(-c2cccc(C(F)(F)F)c2)cs1)N1CC(N2CCN(C(=O)c3nccs3)CC2)C1 [Cpd 1321] | < 5 | 0.067 |  |
| O=C(c1cc[nH]c1)N1CCN(C2CN(C(=O)c3ccc(-c4cccc(C(F)(F)F)c4)cc3)C2)CC1 [Cpd 1324] | < 5 |  | Kd (mutant MGL; [4]): 0.016 µM |
| O=C(c1ccc(-c2nc(-c3ccccc3Cl)cs2)cc1)N1CC(N2CCN(C(=O)c3nccs3)CC2)C1 [Cpd 1328] | < 5 |  | Kd (mutant MGL; [2]): 0.002 µM |
| O=C(c1ccc(-c2nc(-c3cccc(C(F)(F)F)c3)cs2)cc1)N1CC(N2CCN(C(=O)c3nccs3)CC2)C1 [Cpd 1332] | < 5 |  | Kd (mutant MGL; [6]): 0.008 µM |
| O=C(c1ccc(-n2cc(-c3ccc(Cl)cc3)cn2)cc1)N1CC(N2CCN(C(=O)c3nccs3)CC2)C1 [Cpd 1334] | < 5 | 0.08 |  |
| O=C(c1ccc(-c2cccc(C(F)(F)F)c2)cc1)N1CC(N2CCN(C(=O)c3ccc(Br)o3)CC2)C1 [Cpd 1335] | < 5 | 0.011 |  |
| O=C(c1nccs1)N1CCN(C2CN(C(=O)c3ccc4c(ccn4-c4ccc(F)cc4)c3F)C2)CC1 [Cpd 1348, 4-Fluoro-1-(4-fluorophenyl)-5-({3-[4-(1,3-thiazol-2-ylcarbonyl)piperazin-1-yl]azetidin-1-yl}carbonyl)-1H-indole] | < 5 |  | Kd (mutant MGL; [5]): 0.002 µM |
| Cc1cc(C(=O)N2CC(N3CCN(C(=O)c4nccs4)CC3)C2)cc2ccn(-c3ccc(F)cc3)c12 [Cpd 1355, 1-(4-Fluorophenyl)-7-methyl-5-({3-[4-(1,3-thiazol-2-ylcarbonyl)piperazin-1-yl]azetidin-1-yl}carbonyl)-1H-indole] | < 5 |  | Kd (mutant MGL; [5]): 0.002 µM |
| O=C(c1ccc2c(ccn2-c2cccc(C(F)(F)F)c2)c1)N1CC(N2CCN(C(=O)c3nccs3)CC2)C1 [Cpd 1356, 5-({3-[4-(1,3-Thiazol-2-ylcarbonyl)piperazin-1-yl]azetidin-1-yl}carbonyl)-1-[3-(trifluoromethyl)phenyl]-1H-indole] | < 5 |  | Kd (mutant MGL; [2]): 0.002 µM |
| O=C(c1ccc2c(ccn2-c2ccc(Cl)c(F)c2)c1)N1CC(N2CCN(C(=O)c3nccs3)CC2)C1 [Cpd 1372] | < 5 | 0.002 |  |

| SMILES | IC50 [1] [nM] | Kd (mutant MGL; [3]) [µM] | further results |
| --- | --- | --- | --- |
| O=C(c1ccc2c(ccn2-c2cc(F)ccc2F)c1)N1CC(N2CCN(C(=O)c3nccs3)CC2)C1 [Cpd 1373] | < 5 | 0.004 |  |
| O=C(c1ccc2c(cnn2-c2cccc(OC(F)(F)F)c2)c1)N1CC(N2CCN(C(=O)c3nccs3)CC2)C1 [Cpd 1374] | < 5 | 0.007 |  |
| Cc1cc(-n2ccc3cc(C(=O)N4CC(N5CCN(C(=O)c6nccs6)CC5)C4)ccc32)ccc1C#N [Cpd 1375, 2-Methyl-4-[5-({3-[4-(1,3-thiazol-2-ylcarbonyl)piperazin-1-yl]azetidin-1-yl}carbonyl)-1H-indol-1-yl]benzonitrile] | < 5 | 0.003 |  |
| O=C(c1ccc2nn(-c3cccc(OC(F)(F)F)c3)cc2c1)N1CC(N2CCN(C(=O)c3nccs3)CC2)C1 [Cpd 1376] | < 5 | 0.013 |  |
| Cc1cc(-n2ccc3cc(C(=O)N4CC(N5CCN(C(=O)c6nccs6)CC5)C4)ccc32)ccn1 [Cpd 1410, 1-(2-Methylpyridin-4-yl)-5-({3-[4-(1,3-thiazol-2-ylcarbonyl)piperazin-1-yl]azetidin-1-yl}carbonyl)-1H-indole] | 89 |  | Kd (mutant MGL; [6]): 0.014 µM |
| CC(c1ccccc1)n1ncc2cc(C(=O)N3CC(N4CCN(C(=O)c5nccs5)CC4)C3)ccc21 (centres unmarked) [Cpd 1411, 1-(1-Phenylethyl)-5-({3-[4-(1,3-thiazol-2-ylcarbonyl)piperazin-1-yl]azetidin-1-yl}carbonyl)-1H-indazole] | 12 |  | Kd (mutant MGL; [5]): 0.001 µM |
| O=C(c1ccc(-n2nccc2-c2ccc(F)cc2)cc1)N1CC(N2CCN(C(=O)c3nccs3)CC2)C1 [Cpd 1412] | 87 |  | Kd (mutant MGL; [4]): 0.241 µM |
| Cc1cn(-c2ccc(C(=O)N3CC(N4CCN(C(=O)c5nccs5)CC4)C3)cc2)c2ccccc12 [Cpd 1413] | 15 | 0.003 |  |
| O=C(c1nccs1)N1CCN(C2CN(C(=O)c3ccc4c(ccn4-c4ccc(F)cc4)c3Cl)C2)CC1 [Cpd 1414, 4-Chloro-1-(4-fluorophenyl)-5-({3-[4-(1,3-thiazol-2-ylcarbonyl)piperazin-1-yl]azetidin-1-yl}carbonyl)-1H-indole] | 11 |  | Kd (mutant MGL; [5]): 0.003 µM |
| Cc1cc2c(ccn2-c2ccc(F)cc2)cc1C(=O)N1CC(N2CCN(C(=O)c3nccs3)CC2)C1 [Cpd 1415] | 115 |  | Kd (mutant MGL; [5]): 0.011 µM |
| O=C(c1nccs1)N1CCN(C2CN(C(=O)c3cc4ccn(-c5ccc(F)cc5)c4cc3Cl)C2)CC1 [Cpd 1416] | 39 |  | Kd (mutant MGL; [5]): 0.015 µM |
| N#Cc1cc(-n2ccc3cc(C(=O)N4CC(N5CCN(C(=O)c6nccs6)CC5)C4)ccc32)ccc1F [Cpd 1417, 2-Fluoro-5-[5-({3-[4-(1,3-thiazol-2-ylcarbonyl)piperazin-1-yl]azetidin-1-yl}carbonyl)-1H-indol-1-yl]benzonitrile] | < 5 |  | Kd (mutant MGL; [2]): 0.025 µM |
| NC(=O)c1cc(-n2ccc3cc(C(=O)N4CC(N5CCN(C(=O)c6nccs6)CC5)C4)ccc32)ccc1F [Cpd 1418, 2-fluoro-5-[5-({3-[4-(1,3-thiazol-2-ylcarbonyl)piperazin-1-yl]azetidin-1-yl}carbonyl)-1H-indol-1-yl]benzamide] | 16 |  | Kd (mutant MGL; [2]): 0.054 µM |
| O=C(c1ccc2c(cnn2-c2cccc(C(F)(F)F)c2)c1)N1CC(N2CCN(C(=O)c3nccs3)CC2)C1 [Cpd 1419] | < 5 |  | Kd (mutant MGL; [4]): 0.004 µM |
| O=C(c1ccc2nn(-c3cccc(C(F)(F)F)c3)cc2c1)N1CC(N2CCN(C(=O)c3nccs3)CC2)C1 [Cpd 1420] | 5 | 0.08 |  |
| O=C(c1ccc2nn(-c3cccc(OC(F)(F)F)c3)cc2c1)N1CC(N2CCN(C(=O)c3cscn3)CC2)C1 [Cpd 1422] | 14 | 0.195 |  |
| O=C(c1ccc2c(ccn2-c2ccc(F)cc2)c1)N1CC(N2CCN(C(=O)c3ccc(Cl)s3)CC2)C1 [Cpd 1423] | 278 | 0.176 |  |

Source: US8362000B2, “Azetidinyl diamides as monoacylglycerol lipase inhibitors” (Janssen Pharmaceutica NV, priority 2009, dated 2013)
